Results from patent US20170334927A1 (Shanghai Sun-sail Pharmaceutical Science & Technology Co., …, priority 2014, published 2017).
Values after ≈ are worked out from the molar mass of the structure shown.

Experiments:
[1] = tested on: Mycobacterium tuberculosis H37Rv; assay: Activity test for Mycobacterium tuberculosis (MIC, H37Rv); type: cell-based; conditions: for anti Mycobacterium tuberculosis activity (MIC against H37Rv), times of that of PA-824: relative to PA-824; for anti Mycobacterium tuberculosis activity (MIC against H37Rv), times of that of ethambutol: relative to ethambutol; for MIC: Mycobacterium tuberculosis H37Rv, liquid medium, 37° C., read-out: Minimum inhibitory concentration against H37Rv
Procedure: The tested strain H37Rv was transferred to liquid medium and cultured for 2 weeks at 37° C.; a small amount of the cultured bacterial solution was pipetted and placed in 4 mL of liquid medium; 10-20 sterile glass beads with a diameter of 2-3 mm were added; the mixture was shaken for 20-30 s and left to sediment for 10-20 min; the supernatant of the bacterial suspension was pipetted and adjusted to a turbidity of 1 MCF (equivalent to 1×10^7 CFU/mL) with the liquid medium for use. Each drug was dissolved to 1 mg/mL with an appropriate amount of DMSO and filtered with a 0.22 μm filter. Then, the solution was diluted to a desired experimental concentration with the liquid medium. The final concentrations of the tested drugs were set as follows: 0.001 μg/mL, 0.002 μg/mL, 0.0039 μg/mL, 0.0078 μg/mL, […], 0.03125 μg/mL, 0.0625 μg/mL, 0.125 μg/mL, 0.25 μg/mL, 0.5 μg/mL and 1 μg/mL, a total of 11 concentration gradients. 100 μL of each of the above-mentioned drug solutions was added to a 96-well microwell plate, then 100 μL bacterial solution with a concentration of 1 mg/mL was added to allow the drug concentration to reach the final set concentration, and cultured at 37° C. Three groups in parallel were set for each drug dilution with inoculation amounts of 100%, 10% and 1%, respectively, while no drug was added to the control group.

physchem = type: physicochemical; conditions: for solubility at 3 days: pH 1.2, simulated gastric fluid, thermodynamic from solid; for Solubility: 3 days, pH 1.2
Procedure: 3-5 mg of compound to be tested was added to 0.5 mL of aqueous HCl solution (pH=1.2) and the mixture was shaken for three days on a shaker; the sample was centrifuged for 5 min at 10,000 rpm in a centrifuge; a volumetric flask (50 mL) was loaded with 2 mL of supernatant and water was added to a volume at the graduation mark to prepare a sample solution; and 2.6 mg of sample was precisely weighed into a volumetric flask (50 mL), an appropriate amount of methanol was added to dissolve the sample, and water was added to a volume at the graduation mark and shaken well to give a control sample solution. 20 μL of sample solution and control sample solution were each injected, and tested by liquid chromatography. The solubility was calculated as follows:
Solubility (mg/mL)=C (control)*25*A (sample)/A (control)
C (control): concentration of the control sample
A (sample): peak area of the liquid chromatogram of the sample solution
A (control): peak area of the liquid chromatogram of the control sample solution

[2] = Drug metabolism test (pharmacokinetics, oral, mice); type: in vivo, ICR mice; conditions: 10 mg/kg; for AUC(0-inf) / AUC(0-t) / Cmax / MRT / Tmax / half-life: male, ICR, mouse, po, orally (intragastric), plasma
Procedure: 18 healthy male ICR mice with a body weight of 18-22 g were administered drugs by intragastric administration, with an administration dose of 10 mg/kg and an administration volume of 10 mL/kg, respectively. These mice were fasted for 12 h before the test and had free access to drinking water. These mice were fed 2 h after administration uniformly. 0.3 mL of blood was taken from the postocular venous plexus of a mouse at the set time points, placed in a heparinized test tube and centrifuged for 10 min at 3000 rpm; and plasma was separated and frozen in a refrigerator at −20° C. When measured, the sample was treated through the method for treating the plasma sample, and the drug concentration in plasma was determined by LC-MS/MS and the pharmacokinetic parameters of the drug were calculated.

| SMILES | anti Mycobacterium tuberculosis activity (MIC against H37Rv), times of that of PA-824 [1] [times] | anti Mycobacterium tuberculosis activity (MIC against H37Rv), times of that of ethambutol [1] [times] | MIC [1] [µg/mL] | further results |
| --- | --- | --- | --- | --- |
| N#CC1(c2ccc(OC(F)(F)F)cc2)CCN(c2ccc(CN[C@@H]3COc4nc([N+](=O)[O-])cn4C3)cn2)CC1 [Compound 10, (S)-1-(5-(((7-nitro-3,4-dihydro-2H-imidazo[2,1-b][1,3]oxazin-3-yl)amino)methyl)pyridin-2-yl)-4-(4-(trifluoromethoxy)phenyl)piperidine-4-carbonitrile] | 32 | 256 | 0.00195 (≈ 0.00359 µM) | solubility at 3 days (physchem): 522 µg/mL (≈ 960 µM); AUC(0-inf) [2]: 28800 ng·h/mL; AUC(0-t) [2]: 28800 ng·h/mL; Cmax [2]: 2030 ng/mL; MRT [2]: 4.68 h; Tmax [2]: 2.18 h; half-life [2]: 3.35 h; pharmacokinetic properties (in words) ([2]; orally, judgement on Table 6): excellent |
| O=[N+]([O-])c1cn2c(n1)OC[C@@H](NCc1ccc(N3CCC(Oc4ccc(OC(F)(F)F)cc4)C(F)C3)nc1)C2 (stereo partly drawn) [Compound 3, (6S)—N-((6-(3-fluoro-4-(4-(trifluoromethoxy)phenoxy)piperidin-1-yl)pyrid-3-yl)methyl)-2-nitro-6,7-dihydro-5H-imidazo[2,1-b][1,3]oxazin-6-amine] |  |  | 0.0156 (≈ 0.0282 µM) |  |
| N#CC1(c2ccc(OC(F)(F)F)cc2)CCN(c2ncc(CN[C@@H]3COc4nc([N+](=O)[O-])cn4C3)cn2)CC1 [Compound 24, (S)-1-(5-(((7-nitro-3,4-dihydro-2H-imidazo[2,1-b][1,3]oxazin-3-yl)amino)methyl)pyrimidin-2-yl)-4-(4-(trifluoromethoxy)phenyl)piperidine-4-carbonitrile] | 16 | 128 | 0.0039 (≈ 0.00716 µM) | solubility at 3 days (physchem): 782 µg/mL (≈ 1440 µM); AUC(0-inf) [2]: 18300 ng·h/mL; AUC(0-t) [2]: 18200 ng·h/mL; Cmax [2]: 1980 ng/mL; MRT [2]: 4.45 h; Tmax [2]: 2.17 h; half-life [2]: 3.52 h |
| COc1nc(N2CCN(c3ccc(OC(F)(F)F)cc3)CC2)ncc1CN[C@@H]1COc2nc([N+](=O)[O-])cn2C1 [Compound 38, (S)—N-((4-methoxy-2-(4-(4-(trifluoromethoxy)phenyl)piperazin-1-yl)pyrimidin-5-yl)methyl)-2-nitro-6,7-dihydro-5H-imidazo[2,1-b][1,3]oxazin-6-amine] |  |  | 0.0156 (≈ 0.0283 µM) |  |
| O=[N+]([O-])c1cn2c(n1)OC[C@@H](NCc1cnc(N3CC4CN(c5ccc(OC(F)(F)F)cc5)CC4C3)nc1)C2 (stereo partly shown) [Compound 25] |  |  | 0.0156 (≈ 0.0285 µM) |  |
| O=[N+]([O-])c1cn2c(n1)OC[C@@H](NCc1ccc(N3CC4CN(c5ccc(OC(F)(F)F)cc5)CC4C3)nc1)C2 (stereo partly drawn) [Compound 11, (6S)-2-nitro-N-((6-(5-(4-(trifluoromethoxy)phenyl)hexahydropyrrolo[3,4-c]pyrrol-2(1H)-yl)pyrid-3-yl)methyl)-6,7-dihydro-5H-imidazo[2,1-b][1,3]oxazin-6-amine] |  |  | 0.0312 (≈ 0.0573 µM) |  |
| O=[N+]([O-])c1cn2c(n1)OC[C@@H](NCc1cnc(N3CCN(c4ccc(OC(F)(F)F)cc4)CC3)nc1C(F)(F)F)C2 [Compound 41, (S)-2-nitro-N-((2-(4-(4-(trifluoromethoxy)phenyl)piperazin-1-yl)-4-(trifluoromethyl)pyrimidin-5-yl)methyl)-6,7-dihydro-5H-imidazo[2,1-b][1,3]oxazin-6-amine] |  |  | 0.0312 (≈ 0.0531 µM) |  |
| CC1CN(c2ccc(CN[C@@H]3COc4nc([N+](=O)[O-])cn4C3)cn2)CCN1c1ccc(OC(F)(F)F)cc1 (stereo partly drawn) [Compound 5, (3S)—N-((6-(3-methyl-4-(4-(trifluoromethoxy)phenyl)piperazin-1-yl)pyrid-3-yl)methyl)-7-nitro-3,4-dihydro-2H-imidazo[2,1-b][1,3]oxazin-3-amine] | 16 | 128 | 0.0039 (≈ 0.00731 µM) |  |
| O=[N+]([O-])c1cn2c(n1)OC[C@@H](NCc1cnc(N3CCC(Oc4ccc(OC(F)(F)F)cc4)CC3)nc1)C2 [Compound 15] |  |  | 0.0312 (≈ 0.0584 µM) |  |
| N#Cc1nc(N2CCN(c3ccc(OC(F)(F)F)cc3)CC2)ncc1CN[C@@H]1COc2nc([N+](=O)[O-])cn2C1 [Compound 40, (S)-5-(((2-nitro-6,7-dihydro-5H-imidazo[2,1-b][1,3]oxazin-6-yl)amino)methyl)-2-(4-(4-(trifluoromethoxy)phenyl)piperazin-1-yl)pyrimidine-4-carbonitrile] | 8 | 64 | 0.0078 (≈ 0.0143 µM) |  |
| CC[C@@H](CO)NCCN[C@@H](CC)CO [Ethambutol, reference compound] |  |  | 0.5 (≈ 2.45 µM) |  |
| Cc1nc(N2CCN(c3ccc(OC(F)(F)F)cc3)CC2)ncc1CN[C@@H]1COc2nc([N+](=O)[O-])cn2C1 [Compound 36] | 8 | 64 | 0.0078 (≈ 0.0146 µM) | Solubility (physchem): 1123.7 µg/mL (≈ 2100 µM); solubility at 3 days (physchem): > 1000 µg/mL; AUC(0-inf) [2]: 16700 ng·h/mL; AUC(0-t) [2]: 16100 ng·h/mL; Cmax [2]: 2020 ng/mL; MRT [2]: 4.71 h; Tmax [2]: 1.87 h; half-life [2]: 2.87 h |
| O=[N+]([O-])c1cn2c(n1)OC[C@@H](NCc1ccc(N3C4CCC3CC(Oc3ccc(OC(F)(F)F)cc3)C4)nc1)C2 (stereo partly drawn) [Compound 14, (6S)-2-nitro-N-((6-(3-(4-(trifluoromethoxy)phenoxy)-8-azabicyclo[3.2.1]octan-8-yl)pyrid-3-yl)methyl)-6,7-dihydro-5H-imidazo[2,1-b][1,3]oxazin-6-amine] | 8 | 64 | 0.0078 (≈ 0.0139 µM) |  |
| O=[N+]([O-])c1cn2c(n1)OC[C@@H](NCc1ccc(N3CCC4(CC3)CN(c3ccc(OC(F)(F)F)cc3)C4)nc1)C2 [Compound 13, (S)-2-nitro-N-((6-(2-(4-(trifluoromethoxy)phenyl)-2,7-diazaspiro[3.5]nonan-7-yl)pyrid-3-yl)methyl)-6,7-dihydro-5H-imidazo[2,1-b][1,3]oxazin-6-amine] |  |  | 0.0156 (≈ 0.0279 µM) |  |
| O=[N+]([O-])c1cn2c(n1)OC[C@@H](NCc1cnc(N3C4CCC3CC(Oc3ccc(OC(F)(F)F)cc3)C4)nc1)C2 (stereo partly shown) [Compound 28] |  |  | 0.0156 (≈ 0.0278 µM) |  |
| O=[N+]([O-])c1cn2c(n1)OC[C@@H](NCc1ccc(N3CCN(c4ccc(OC(F)(F)F)cc4)CC3)nc1)C2 [Compound 4, (S)-2-nitro-N-((6-(4-(4-(trifluoromethoxy)phenyl)piperazin-1-yl)pyrid-3-yl)methyl)-6,7-dihydro-5H-imidazo[2,1-b][1,3]oxazin-6-amine] | 32 | 256 | 0.00195 (≈ 0.00375 µM) | Solubility (physchem): 1257.2 µg/mL (≈ 2420 µM); solubility at 3 days (physchem): > 1000 µg/mL; AUC(0-inf) [2]: 17300 ng·h/mL; AUC(0-t) [2]: 17200 ng·h/mL; Cmax [2]: 1780 ng/mL; MRT [2]: 5.56 h; Tmax [2]: 2 h; half-life [2]: 3.38 h |
| CN(Cc1cnc(N2CCN(c3ccc(OC(F)(F)F)cc3)CC2)nc1)[C@@H]1COc2nc([N+](=O)[O-])cn2C1 [Compound 44, (S)—N-methyl-2-nitro-N-((2-(4-(4-(trifluoromethoxy)phenyl)piperazin-1-yl)pyrimidin-5-yl)methyl)-6,7-dihydro-5H-imidazo[2,1-b][1,3]oxazin-6-amine] | 32 | 256 | 0.00195 (≈ 0.00365 µM) |  |
| CC1CN(c2ccc(OC(F)(F)F)cc2)CCN1c1ccc(CN[C@@H]2COc3nc([N+](=O)[O-])cn3C2)cn1 (stereo partly drawn) [Compound 6, (3S)—N-((6-(2-methyl-4-(4-(trifluoromethoxy)phenyl)piperazin-1-yl)pyrid-3-yl)methyl)-7-nitro-3,4-dihydro-2H-imidazo[2,1-b][1,3]oxazin-3-amine] | 32 | 256 | 0.00195 (≈ 0.00366 µM) |  |
